The values below are quoted from earlier work in patent US10695287B2, “AMPK agonist topical medication for the treatment of certain specific medical conditions, methods of use thereof and wound dressing employing the same” (CERSCI THERAPEUTICS, INC., priority 2015, dated 2020).

SMILES strings stand for the structures.

The subject of this data set is AMPK. The conditions noted are these: topical administration; animal model (rodents); literature (Price et al. 2013; Tillu et al. 2012).

`Oc1ccc(C=Cc2cc(O)cc(O)c2)cc1` [resveratrol]: the mitigation of pain entry was “has shown efficacy in mitigation of pain”.
